Consider 15 compounds from patent US20140094482A1, “BENZAZOCINE-RING COMPOUND INHIBITION OF TAU HYPERPHOSPHORYLATION” (priority 2012, published 2014).

One assay addresses T1, α7nAChR-FLNA complex (Rattus norvegicus, UniProt A0A8I5ZV49).
T1 construct: from tissue; host or cells: rat frontal cortex synaptosomes
The assay is described as follows: Aβ42-induced α7nAChR-FLNA association in frontal cortical synaptosomes (anti-FLNA immunoprecipitation, Western blot). The assay is classed as biochemical. The note with it: compound simultaneous with 100 nM Aβ42; vs Aβ42 alone. As for the experimental part:
FIG. 2, in two panels as FIG. 2A and FIG. 2B, illustrates high-affinity FLNA-binding compounds reduce α7nAChR-FLNA association as shown by Western blots. Frontal cortical synaptosomes from 2-month-old rats (n=4) were treated with 0.1 or 1 nM concentrations of potential FLNA-binding compounds [A0040, A0068, B0055, C0137M, C0138M and (+)-naloxone (+NLX)] either simultaneously (Sim) with or 10 minutes prior (10′ pr) to Aβ42 and were analyzed for their α7nAChR-FLNA complex contents. The α7nAChR-FLNA complexes in the solubilized synaptosomes were immunoprecipitated with immobilized anti-FLNA and the α7nAChR and FLNA levels in the anti-FLNA immunoprecipitates determined by Western blotting FIG. 2A and quantified by densitometry (FIG. 2B). n=3. Data are means±SEM. […] vs. Aβ42 alone. Data for 0.1 nM simultaneous admixture are shown in diagonal hatching; data from 1 nM simultaneous admixture are shown in cross-hatching; data from 0.1 nM 10 minutes prior to Aβ42 are shown in horizontal hatching; and data from 1 nM admixture 10 minutes prior Aβ42 are shown with vertical hatching. The letter designation “M” that accompanies many of the “C-series” compounds is omitted from FIG. 2, the remaining figures and most discussions of the figures and compounds hereinafter for ease in expression. […]

Another assay concerns ERK2. The assay is described as follows: Aβ42-induced ERK2 activation (pERK2) in synaptosomes. It is filed as biochemical, rat. The note with it: 0.1 and 1 nM, simultaneous treatment. As for the experimental part: FIG. 3, in two panels as FIG. 3A and FIG. 3B, illustrates that FLNA-binding compounds reduce Aβ-induced α7nAChR-mediated ERK2 signaling. In the same treated synaptosomes used in FIG. 2, levels of phosphorylated (activated) ERK2 (pERK2) were measured in immunoprecipitates of ERK2. Aβ42 strongly activated extracellular signal-regulated kinase 2 [ERK2; also known as mitogen-activated protein kinase 1 (MAPK1)], and all compounds studied reduced this activation with 10-minutes of pretreatment. […] Immunoprecipitates were determined by Western blotting (FIG. 3A) and quantified by densitometry (FIG. 3B). n=3. Data are means±SEM. […] vs. Aβ42 alone. Hatching is as in FIG. 2.
(§1) Synaptosomes were exposed to 100 nM Aβ42 for 30 minutes, and with […] compounds added either simultaneously or 10 minutes earlier. Controls were a vehicle (no Aβ42) and an Aβ42 alone condition.
To assess Aβ42 signaling via α7nAChR after compound administration, levels of phosphorylated ERK2 were measured in the same synaptosome preparations treated with Aβ42 and the above compounds using Western blots (FIG. 3A). Phosphorylation of ERK2 indicates its activation, which leads to tau hyperphosphorylation. Compared to the control condition, Aβ42 strongly activates ERK2. This activation is suppressed by all six compounds at 0.1 and 1 nM with 10 minute pretreatment, and also by Compound B0055 and (+)NLX with simultaneous treatment (FIG. 3B).

In assay [1] the target is FLNA pentapeptide of SEQ ID NO: 1 (Bn-VAKGL) (Homo sapiens, UniProt P21333). In words: FITC-NLX-based FLNA screening assay (inhibition of FITC-naloxone binding to Bn-VAKGL). The note with it: for inhibition at 0.01 µM: read-out: Percent inhibition of FITC-NLX binding, 0.01 μM compound; for inhibition at 0.1 µM: read-out: Percent inhibition of FITC-NLX binding, 0.1 μM compound.

The subject of another assay is tau protein. The assay is described as follows: Aβ42-induced tau phosphorylation at S202, T231 and T181 in synaptosomes. The assay is classed as biochemical, rat. As for the experimental part:
FIG. 4, in four panels as FIG. 4A, FIG. 4B, FIG. 4C and FIG. 4D, illustrate that FLNA-binding compounds reduce tau phosphorylation at all three hyperphosphorylation sites. […] The three phosphoepitopes of tau were detected in immunoprecipitates using specific antibodies in Western blots. […] Immunoprecipitates were determined by Western blotting (FIG. 4A) and quantified by densitometry (FIG. 4B, FIG. 4C and FIG. 4D). Data are means±SEM. […] vs. Aβ42 alone. Hatching is as in FIG. 2.
as §1
Next assessed was whether the FLNA-binding compounds also decrease hyperphosphorylation of tau, a downstream effect of Aβ42 binding to α7nAChR and ERK2 activation. The three primary phosphorylation sites on tau protein were examined for their phosphorylation levels compared to total tau protein content using Western blots (FIG. 4A). Tau, phosphorylated at these three sites, is a constituent of NFTs.

A further assay concerns the target delta-opioid receptor (Homo sapiens, UniProt P41143). The note with it: cited from earlier work.
The next assay has as its target kappa-opioid receptor (Homo sapiens, UniProt P41145). The note with it: cited from earlier work.
Assay [2] deals with T2, FLNA (Homo sapiens, UniProt P21333).
T2 construct: rather than the full protein from a cell membrane preparation; host or cells: A7 cells (membranes)
The assay is described as follows: Inhibition of [3H]NLX binding to membranes from FLNA-expressing A7 cells. The note with it: for IC50: [3H]NLX binding, A7 cell membranes, Example 3, six studies, two-site fit.

In assay [3] the target is T2, FLNA. In words: Inhibition of FITC-NLX binding to FLNA in membranes of A7 cells. The note with it: for IC50: FITC-NLX in place of [3H]NLX. The text has this:
3(2):e1554 (2008), FIG. 3. FIG. 1B is a similar plot obtained from the use of FITC-labeled NLX (FITC-NLX) in place of the radio-labeled material.

The target of assay [4] is T2, FLNA. The note with it: [3H]NLX binding, A7 cell membranes, Wang et al. 2008/2009, cited from earlier work.
The mark [5] stands for this setting: read-out: inhibition of binding of FITC-labeled NLX.
[6] abbreviates: read-out: Percent Inhibition, 1 μM compound (n = 5).
Where [7] appears, read: read-out: Percent inhibition of FITC-NLX binding, 1 μM compound, 10 nM FITC-NLX.
The mark [8] stands for this setting: read-out: inhibition of binding of FITC-labeled NLX, 1 μM compound, 10 nM FITC-NLX, n=5, FIG. 11.

“And” between values parts separate entries of the source, which are not always exact repeats. Equal entries are not always repeated. “Also recorded” adds a separate entry of the source. Where two headings read alike, the source gives them in different places.

Sequence of kappa-opioid receptor (P41145 whole entry): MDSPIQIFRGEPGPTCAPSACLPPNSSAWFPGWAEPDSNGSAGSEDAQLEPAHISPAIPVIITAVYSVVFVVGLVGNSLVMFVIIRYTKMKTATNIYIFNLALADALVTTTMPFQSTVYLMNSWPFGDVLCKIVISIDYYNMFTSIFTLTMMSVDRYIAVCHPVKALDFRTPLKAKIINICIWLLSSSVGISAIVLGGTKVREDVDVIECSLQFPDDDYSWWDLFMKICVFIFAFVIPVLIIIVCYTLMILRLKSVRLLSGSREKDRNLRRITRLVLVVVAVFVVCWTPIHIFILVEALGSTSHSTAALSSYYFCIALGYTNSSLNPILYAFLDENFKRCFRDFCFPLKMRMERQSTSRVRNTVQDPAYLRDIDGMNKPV
T2 sequence (P21333 whole entry): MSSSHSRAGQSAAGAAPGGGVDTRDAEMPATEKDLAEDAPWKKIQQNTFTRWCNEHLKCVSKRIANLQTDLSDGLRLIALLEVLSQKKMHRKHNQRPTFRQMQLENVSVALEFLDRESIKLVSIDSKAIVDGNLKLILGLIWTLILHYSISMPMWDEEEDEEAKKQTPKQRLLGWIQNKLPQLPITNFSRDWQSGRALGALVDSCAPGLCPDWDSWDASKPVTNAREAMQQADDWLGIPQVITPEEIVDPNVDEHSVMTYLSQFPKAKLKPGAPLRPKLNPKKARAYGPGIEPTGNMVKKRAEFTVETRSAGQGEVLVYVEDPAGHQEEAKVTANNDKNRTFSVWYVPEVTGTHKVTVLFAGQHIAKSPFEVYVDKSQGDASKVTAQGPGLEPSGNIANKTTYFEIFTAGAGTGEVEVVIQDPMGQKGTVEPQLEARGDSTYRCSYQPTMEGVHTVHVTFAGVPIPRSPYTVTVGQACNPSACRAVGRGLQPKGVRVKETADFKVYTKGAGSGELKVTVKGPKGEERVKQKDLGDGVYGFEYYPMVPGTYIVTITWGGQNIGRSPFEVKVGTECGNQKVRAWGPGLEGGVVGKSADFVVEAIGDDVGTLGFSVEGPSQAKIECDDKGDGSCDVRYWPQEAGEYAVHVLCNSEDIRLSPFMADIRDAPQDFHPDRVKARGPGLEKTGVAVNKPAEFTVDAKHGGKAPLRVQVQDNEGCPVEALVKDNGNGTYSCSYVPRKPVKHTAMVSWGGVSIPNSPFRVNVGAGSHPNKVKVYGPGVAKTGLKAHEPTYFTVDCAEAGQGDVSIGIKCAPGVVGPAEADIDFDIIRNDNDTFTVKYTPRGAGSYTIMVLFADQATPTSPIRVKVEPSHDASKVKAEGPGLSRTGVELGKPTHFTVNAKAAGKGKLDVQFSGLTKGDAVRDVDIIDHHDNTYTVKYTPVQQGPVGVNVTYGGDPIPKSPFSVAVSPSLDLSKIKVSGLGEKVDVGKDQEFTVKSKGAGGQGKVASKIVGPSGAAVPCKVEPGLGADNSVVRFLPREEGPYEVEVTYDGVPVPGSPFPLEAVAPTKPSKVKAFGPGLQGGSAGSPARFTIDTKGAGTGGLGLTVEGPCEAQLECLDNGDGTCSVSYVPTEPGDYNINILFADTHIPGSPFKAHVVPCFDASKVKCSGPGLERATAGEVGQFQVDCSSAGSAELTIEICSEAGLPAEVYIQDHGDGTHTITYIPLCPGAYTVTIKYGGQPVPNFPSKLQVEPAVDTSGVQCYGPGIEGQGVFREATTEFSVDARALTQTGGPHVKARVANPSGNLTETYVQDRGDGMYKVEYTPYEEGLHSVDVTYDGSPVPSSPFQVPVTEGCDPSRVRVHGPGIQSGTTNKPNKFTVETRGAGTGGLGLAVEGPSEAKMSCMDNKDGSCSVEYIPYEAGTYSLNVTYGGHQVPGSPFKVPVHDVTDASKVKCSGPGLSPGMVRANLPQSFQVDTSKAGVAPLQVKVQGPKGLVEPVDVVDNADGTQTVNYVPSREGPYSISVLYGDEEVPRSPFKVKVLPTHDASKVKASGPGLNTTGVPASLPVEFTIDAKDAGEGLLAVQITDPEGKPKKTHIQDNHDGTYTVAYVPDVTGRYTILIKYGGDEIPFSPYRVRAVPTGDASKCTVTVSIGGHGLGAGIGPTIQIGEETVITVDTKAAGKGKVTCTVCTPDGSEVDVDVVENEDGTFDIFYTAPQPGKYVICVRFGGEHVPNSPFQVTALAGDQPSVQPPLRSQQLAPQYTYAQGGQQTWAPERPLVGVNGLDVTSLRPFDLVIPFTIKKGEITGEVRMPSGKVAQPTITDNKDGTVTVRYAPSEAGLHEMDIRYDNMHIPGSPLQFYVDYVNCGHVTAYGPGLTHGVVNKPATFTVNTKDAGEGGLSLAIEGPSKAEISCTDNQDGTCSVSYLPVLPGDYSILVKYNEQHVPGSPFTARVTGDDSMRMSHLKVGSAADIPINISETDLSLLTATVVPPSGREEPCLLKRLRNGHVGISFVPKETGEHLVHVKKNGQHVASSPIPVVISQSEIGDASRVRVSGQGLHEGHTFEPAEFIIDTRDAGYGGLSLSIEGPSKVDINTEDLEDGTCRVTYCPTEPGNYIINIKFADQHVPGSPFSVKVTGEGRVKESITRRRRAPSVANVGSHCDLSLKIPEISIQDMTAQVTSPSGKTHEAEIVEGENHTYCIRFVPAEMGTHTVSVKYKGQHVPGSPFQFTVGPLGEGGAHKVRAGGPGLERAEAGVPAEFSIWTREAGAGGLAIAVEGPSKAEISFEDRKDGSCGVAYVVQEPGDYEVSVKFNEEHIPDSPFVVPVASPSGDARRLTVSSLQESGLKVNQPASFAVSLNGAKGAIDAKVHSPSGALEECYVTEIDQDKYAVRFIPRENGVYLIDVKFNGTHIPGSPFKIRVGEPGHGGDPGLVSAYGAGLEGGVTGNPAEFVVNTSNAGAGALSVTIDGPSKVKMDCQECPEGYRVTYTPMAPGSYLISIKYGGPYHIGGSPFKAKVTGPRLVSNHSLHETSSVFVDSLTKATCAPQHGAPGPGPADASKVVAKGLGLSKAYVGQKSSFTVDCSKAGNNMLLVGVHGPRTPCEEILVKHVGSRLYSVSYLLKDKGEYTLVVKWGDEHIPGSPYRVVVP
Sequence of delta-opioid receptor (P41143 whole entry): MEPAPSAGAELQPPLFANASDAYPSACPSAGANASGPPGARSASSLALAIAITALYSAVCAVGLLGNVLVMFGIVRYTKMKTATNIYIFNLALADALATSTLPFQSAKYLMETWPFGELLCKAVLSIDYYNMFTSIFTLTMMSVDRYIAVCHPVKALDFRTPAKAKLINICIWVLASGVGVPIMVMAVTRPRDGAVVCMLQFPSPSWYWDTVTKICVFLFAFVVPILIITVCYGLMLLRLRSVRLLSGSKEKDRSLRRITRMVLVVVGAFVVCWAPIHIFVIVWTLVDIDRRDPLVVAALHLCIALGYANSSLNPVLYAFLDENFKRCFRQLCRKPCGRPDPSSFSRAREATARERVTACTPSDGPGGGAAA

Turning to `COc1c2c(cc3c1C(CC(=O)Cc1ccccc1F)[N+](C)(C)CC3)OCO2` (centres unmarked) [Compound B0055], the α7nAChR-FLNA association entry at α7nAChR-FLNA complex is reported as “markedly reduced”. Besides, the “Aβ42-induced ERK2 activation (pERK2)” value in the assay with ERK2 was “suppressed; also recorded: reduced the activation at both concentrations”.
On to `Oc1ccc2c3c1O[C@H]1[C@H](O)CC[C@@]4(O)[C@@H](C2)N(CC2CC2)CC[C@]314` [6-β-Naltrexol], for which the “Percent Inhibition” value came to 50.5% in assay [1] (1 µM) and 64.8% in assay [1] (10 µM).
As to `CN1CC[C@]23CCCC[C@H]2[C@H]1Cc1ccc(O)cc13` [Levorphanol], in assay [1] (read-out: Percent Inhibition), the inhibition at 1 µM turned out to be 46.8% and the inhibition at 10 µM was found to be 69.4%.
In the same order, the values of `C=C1CC[C@@]2(O)[C@H]3Cc4ccc(O)c5c4[C@@]2(CCN3CC2CC2)[C@H]1O5` [Nalmefene] are 44.5% and 66.9%.
Take (+)-naloxone [(+)NLX]: the α7nAChR-FLNA association result on α7nAChR-FLNA complex is “markedly reduced”. The “Aβ42-induced ERK2 activation (pERK2)” value is given as “suppressed” in the assay with ERK2 and “reduced the activation at both concentrations” in the assay with ERK2 (listed as (+)-naloxone). Moreover, the “Aβ42-induced hyperphosphorylation of tau at all three sites” value in the assay on tau protein (FIG. 4D, timing not specified) is on record as “particularly decreased”. The “Aβ42-induced tau phosphorylation at S202, T231 and T181” value in the assay on tau protein (simultaneous administration, both concentrations) was “reduced tau phosphorylation”.
Take `COC(=O)/C=C/C(=O)N[C@@H]1CC[C@@]2(O)[C@H]3Cc4ccc(O)c5c4[C@@]2(CCN3CC2CC2)[C@H]1O5` [β-Funaltrexamine]: the figures for the “Percent Inhibition” value in [1] (1 µM) and in [1] (10 µM) were 49.8% and 69.4%, respectively.
`C=CCN1CC[C@]23c4c5ccc(O)c4O[C@H]2/C(=N/NC(=O)c2ccccc2)CC[C@@]3(O)[C@H]1C5` [Naloxone Benzoylhydrazone]: the “RECEPTOR DELTA: antagonism/agonism and relative potency” value on delta-opioid receptor is on record as “−”. Moreover, on kappa-opioid receptor, the “RECEPTOR KAPPA: antagonism/agonism and relative potency” value is on record as “−”.
Consider `CN1CC[C@]23c4c5ccc(O)c4O[C@H]2[C@@H](O)C=C[C@H]3[C@H]1C5` [morphine], for which the “binding to the FLNA pentapeptide of SEQ ID NO: 1 (in words)” value (from here on “binding … of SEQ ID NO: 1 (in words)”) in assay [1] was “do not bind well”. For the same compound, the inhibition at 10 µM in assay [1] (setting [5]) fell in the range of 25 to 50%.
Turning to `Oc1ccc2c3c1O[C@H]1c4[nH]c5c(c4C[C@@]4(O)C(C2)N(CC2CC2)CC[C@]314)C[C@@]1(O)[C@H]2Cc3ccc(O)c4c3[C@@]1(CCN2CC1CC1)[C@H]5O4` [nor-Binaltrophimine], at delta-opioid receptor, the “RECEPTOR DELTA: antagonism/agonism and relative potency” value is “−”.
In the case of `Oc1ccc2c3c1O[C@H]1[C@@H](O)CC[C@@]4(O)[C@@H](C2)N(CC2CCC2)CC[C@]314` [Nalbuphine], in assay [1], the “binding … of SEQ ID NO: 1 (in words)” value was “bind well”. In assay [1] (read-out: Percent Inhibition), the inhibition at 1 µM was determined as 65.4% and the inhibition at 10 µM turned out to be 76.2%.
As to `COc1ccc2c3c1O[C@H]1C(=O)CC[C@@]4(O)[C@@H](C2)N(C)CC[C@]314` [oxycodone], in [1], the “binding … of SEQ ID NO: 1 (in words)” value is listed as “do not bind well”. For the same compound, the inhibition at 10 µM in [1] (setting [5]) is 25 to 50%.
As to `O=C1CC[C@@]2(O)[C@H]3Cc4ccc(O)c5c4[C@@]2(CCN3CC2CC2)[C@H]1O5` [Naltrexone], in assay [1], the “binding … of SEQ ID NO: 1 (in words)” value was “bind well”. Besides, the “Percent inhibition of FITC-NLX binding” value in assay [1] (0.01 μM compound, 10 nM FITC-NLX, listed as NTX) is 37.9% and 34.8% and 38.5%; in assay [1] (0.1 μM compound, 10 nM FITC-NLX, listed as NTX), 46.5% and 45.2% and 43.3%; in [1] (1 μM compound, 10 nM FITC-NLX, listed as NTX), 55.4% and 51.6% and 48.0%. The figures for the inhibition at 1 µM in assay [1] (setting [6]), in assay [1] (setting [7]) and in assay [1] (setting [8]) were 76.4%, 49.1% and roughly 75%, respectively. Moreover, in [1] (10 nM FITC-NLX), the inhibition at 0.01 µM worked out at 40.2%. Moreover, the inhibition at 0.1 µM in assay [1] (10 nM FITC-NLX) came out at 47.4%. Further, the IC50 at FLNA [2] (IC50-L (low)) is 0.834 nM; at FLNA [2] (read-out: IC50-H (high)) it was 0.00394 nM; on FLNA [3] (read-out: IC50-H (high)), 0.00163 nM; at FLNA [3] (read-out: IC50-L (low)) it was 18.8 nM; at FLNA [4] (read-out: IC50-H (high affinity site)) it was 0.00394 nM; on FLNA [4] (read-out: IC50-L (lower affinity site)) it was 0.834 nM. In addition, the figures for the “affinity difference between the high- and low-affinity binding sites” value at FLNA [2] ([3H]NLX label) and on FLNA [3] (FITC-NLX label) were “about 200 fold” and roughly 12.000 fold, respectively.
Take `C=CCN1CC[C@]23c4c5ccc(O)c4O[C@H]2C(=O)CC[C@@]3(O)[C@H]1C5` [Naloxone]: the “binding … of SEQ ID NO: 1 (in words)” value in assay [1] is on record as “bind well”. Further, the “Percent inhibition of FITC-NLX binding” value in assay [1] (0.01 μM compound, 10 nM FITC-NLX, listed as (−)NLX) was 41.9% and 34.3% and 41.4% and 42.50%; in [1] (0.1 μM compound, 10 nM FITC-NLX, listed as (−)NLX), 48.6% and 38.5% and 47.2% and 54.20%; in assay [1] (1 μM compound, 10 nM FITC-NLX, listed as (−)NLX), 51.5% and 45.8% and 50.2% and 56.20%. Further, the inhibition at 1 µM is 71.6% in [1] (setting [6]), 53.9% in assay [1] (setting [7]) and roughly 75% in assay [1] (setting [8]). For the same compound, the inhibition at 0.01 µM in assay [1] (10 nM FITC-NLX) is 43%. Further, the inhibition at 0.1 µM in assay [1] (10 nM FITC-NLX) is 50.3%.
As for `C=CCN1CC[C@]23c4c5ccc(O)c4O[C@H]2[C@@H](O)C=C[C@H]3[C@H]1C5` [Nalorphine], the “binding … of SEQ ID NO: 1 (in words)” value in assay [1] is on record as “bind well”. Also, in [1] (read-out: Percent Inhibition), the inhibition at 1 µM is 58.7% and the inhibition at 10 µM worked out at 60.2%. At kappa-opioid receptor, the “RECEPTOR KAPPA: antagonism/agonism and relative potency” value was “+”.
Take `Oc1ccc2c(c1)[C@@]13CCCC[C@@]1(O)[C@@H](C2)N(CC1CCC1)CC3` [Butorphanol]: the “RECEPTOR KAPPA: antagonism/agonism and relative potency” value on kappa-opioid receptor was “+++”.
